Where “and” joins values, the source holds several entries; their conditions need not be identical. Identical values can stand only once.
Molecular target: T1, Histidine--tRNA ligase (Leishmania infantum, UniProt A4I591)
T1 sequence (A4I591 whole entry): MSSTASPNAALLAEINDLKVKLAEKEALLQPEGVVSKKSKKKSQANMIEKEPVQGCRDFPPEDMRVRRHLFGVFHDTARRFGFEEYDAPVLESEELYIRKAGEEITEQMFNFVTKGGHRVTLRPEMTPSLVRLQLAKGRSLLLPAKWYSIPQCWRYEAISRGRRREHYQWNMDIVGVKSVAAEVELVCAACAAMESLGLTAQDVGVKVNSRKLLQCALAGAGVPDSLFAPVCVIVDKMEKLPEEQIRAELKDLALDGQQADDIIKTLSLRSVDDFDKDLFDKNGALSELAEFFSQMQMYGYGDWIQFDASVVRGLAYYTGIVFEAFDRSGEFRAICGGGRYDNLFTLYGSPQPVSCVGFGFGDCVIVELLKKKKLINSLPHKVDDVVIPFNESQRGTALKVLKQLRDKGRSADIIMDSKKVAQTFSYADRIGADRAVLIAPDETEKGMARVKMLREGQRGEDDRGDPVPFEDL
Assay: Leishmania infantum Histidine tRNA synthetase (LdHisRS)
Format: functional

| SMILES | IC50 |
| --- | --- |
| Cc1noc(C(C)Nc2ccc(N3CCOCC3)cc2C)n1 (stereo unspecified) | > 100 µM |
| CC(=O)NCC(=O)N1Cc2nccn2CC(COc2cccnc2)C1 (stereo unspecified) | > 100 µM |
| COc1cccn(CC(=O)N(C)CCCOc2c(C)cccc2C)c1=O | > 100 µM |
| O=C(C1CCCCC1)N1C[C@@H]2CCN(c3cnccn3)C[C@@H]2C1 | 66.8 µM and 70.3 µM |
| Cc1noc(C)c1CNc1c(N2CCCC2)cccc1N1CCCC1 | > 100 µM |
| CC(=O)N1CCO[C@@H]2CN(S(=O)(=O)c3ccc(C)cc3)CC[C@@H]2C1 | > 100 µM |
| Cc1ccc(N2CCc3sc(C(=O)N4CCOCC4)cc32)nn1 | > 100 µM |
| Cc1ccccc1-c1noc(CN2CCc3nn(C)c(=O)cc3C2)n1 | 25.2 µM and 21.2 µM |
| c1ccc(-n2ncc(CNCC3CCCN3c3cccnn3)n2)cc1 (stereo unspecified) | 22.3 µM and 27.2 µM |
| CN(C)C(=O)CN1CCCC1c1cccc(Cc2ccccc2F)n1 (stereo unspecified) | 61.1 µM and 51.2 µM |
| CN(C(=O)CN1CCc2nn(C)c(=O)cc2C1)c1nccs1 | 95.3 µM and > 100 µM |
| O=C(NC1CCCN(c2ccc(OC(F)F)cc2)C1)c1ccon1 (stereo unspecified) | > 100 µM |
| c1ccc(Cn2cc(CNCC3CCCN3c3cccnn3)cn2)cc1 (stereo unspecified) | > 100 µM |
| Cc1cc(NC(=O)CN2CCc3nn(C)c(=O)cc3C2)no1 | > 100 µM |
| O=C(c1ccc2[nH]ccc2c1)N1CCn2cnc(COCC3CC3)c2C1 | 38.4 µM and 25.7 µM |
| COc1cccc(N2CCN(Cc3cccc(CCN)c3)CC2=O)c1 | 23.3 µM and 28.2 µM |
| CN(C)c1ncc(-c2c(-c3ccccc3)ncn2C(CO)C(=O)O)cn1 (stereo unspecified) | > 100 µM |
| Cc1nc(CN2CCCC2c2ccsc2)nc2ccccc12 (stereo unspecified) | 56 µM and 44.1 µM |
| O=C1NCC(C(=O)Nc2ccc(=O)n(Cc3ccccc3Cl)c2)N1 (stereo unspecified) | 12.7 µM and 15.3 µM |
| Cn1nc2c(cc1=O)CN(Cc1nc(-c3ccccn3)no1)CC2 | > 100 µM |
| CN(C)CCn1c(=O)oc2ccc(NC(=O)C3CCCO3)cc21 (stereo unspecified) | > 100 µM |
| CCn1nnc2c1C(COC)CN(Cc1ccco1)C2 (stereo unspecified) | > 100 µM |
| Cc1cc(CNc2ccc3nc(C)sc3c2)no1 | > 100 µM |
| COc1ccc2c(c1)CC(NCc1cccc(OCC(N)=O)c1)CC2 (stereo unspecified) | 17 µM and 23.6 µM |

| SMILES | IC50 |
| --- | --- |
| COc1ccc(-c2nc(CN3CCc4c(ncn4C)C3)cs2)cc1 | 69.8 µM and 87.5 µM |
| Cc1cs/c(=N/C(=O)c2csc(NCC(C)C)n2)[nH]1 | 28.6 µM and 46.9 µM |
| Cn1ccnc1-c1cn(CCCc2csc(N)n2)nn1 | > 100 µM |
| O=c1c2ccccc2nc2n1C(CSc1ccc(Br)cc1)CN2 (stereo unspecified) | > 100 µM |
| CC(C(=O)Nc1ccc(N2CCCC2)nc1)n1cncn1 (stereo unspecified) | > 100 µM |
| NC(=O)c1ccc(N2CCCCC2)c(NC(=O)c2ccc(F)cc2Cl)c1 | 71.9 µM and 52.6 µM |
| O=C(Nc1ccc(=O)n(Cc2ccccc2Cl)c1)C1CC1 | 6.94 µM and 5.93 µM |
| CC(O)CN1CCN(C(=O)c2ccc(Cn3cccn3)cc2)CC1 (stereo unspecified) | > 100 µM |
| COc1ccc(C(=O)N2CCN(c3cc(CCN)nc(C)n3)CC2)cc1 | 49.3 µM and 51.2 µM |
| Cc1csc(N2CCN(C(=O)CCC(=O)c3ccc(C)s3)CC2)n1 | > 100 µM |
| CS(=O)(=O)CCOCCNc1cncc(Br)c1 | > 100 µM |
| c1cc(-c2ccc3c(c2)CCC32CCN(c3nncs3)CC2)co1 | 12.5 µM and 10.1 µM |
| Cc1noc(C)c1CN1CCc2nn(C(C)C)c(=O)cc2C1 | 86 µM and > 100 µM |
| CC(C)c1nnc(N2C[C@@H]3CC[C@H](C2)N(Cc2ccccc2)C3)s1 | 35.5 µM and 34.5 µM |
| c1ccc(-c2cnc(CNC3CCCN(c4cccnn4)C3)o2)cc1 (stereo unspecified) | 43.5 µM and 30.5 µM |
| COc1cccc(-c2n[nH]c3c2CN(C(=O)c2cccc(=O)[nH]2)CC3)c1 | 12.9 µM |
| CC(C)NC(=O)C1Cc2nc(-c3ccsc3)sc2N1CC1CC1 (stereo unspecified) | 33.6 µM and 37.3 µM |
| O=C1CC(c2ccc(C(=O)O)cc2)c2ncn(-c3ccccc3F)c2N1 (stereo unspecified) | 19.1 µM and 25.2 µM |
| CC(C(=O)NCc1ccc(N2CCNC(=O)C2)cc1)n1cncn1 (stereo unspecified) | 60.1 µM and 77.1 µM |
| CCOc1ccc2nc(CN3CCC(CN)C3)ccc2c1 (stereo unspecified) | 33.2 µM and 46.9 µM |
| CC(C)c1ccc(C(=O)O)cc1S(=O)(=O)Nc1ccc(=O)n(C)c1 | 12.5 µM and 14.9 µM |
| O=C1CC(c2ccc(C(=O)O)cc2)c2ncn(-c3ccccc3)c2N1 (stereo unspecified) | 17.3 µM and 20.1 µM |
| CCCc1nc(CN2CCOC(CNc3cccnn3)C2)cs1 (stereo unspecified) | 45.1 µM and 33.5 µM |
| Cc1c(CN2CCCCC2)c(O)n(CCO)c(=O)c1C#N | 34.4 µM and 35.9 µM |

| SMILES | IC50 |
| --- | --- |
| CC(C)c1cc(N2CCC(C(C)N3CCCC3)CC2)n2nccc2n1 (stereo unspecified) | 34.3 µM and 31.4 µM |
| Cc1ncc2c(n1)CN(Cc1nnc(-c3occc3C)o1)CC2 | 64.7 µM and 82.6 µM |
| Cn1cc(NC(=O)Nc2cccc3cccnc23)ccc1=O | 2.58 µM and 4.22 µM |
| CCC1CN(CCC(=O)N(C)C)CCN1CCOC (stereo unspecified) | > 100 µM |
| CC(Nc1nc(-c2ccncc2)nc2c1CCNC2)c1ccccc1 (stereo unspecified) | 43.4 µM and 46.8 µM |
| COc1cccn(CC(=O)N(C)CCOc2cc(C)cc(C)c2)c1=O | 3.92 µM and 3.35 µM |
| NC(=O)CCS(=O)(=O)Cc1ccc(OCC(F)(F)F)cc1 | > 100 µM and 68.4 µM |
| COCCN1CCC(C)(c2cc(O)[nH]n2)CC1 | 71.4 µM and 66.4 µM |
| CC(=O)Cc1c(C)nn(-c2cncc(N)c2)c1C | 33.4 µM and 30.1 µM |
| O=C(c1ccc2[nH]ccc2c1)N1Cc2nc(CN3CCCCC3)oc2C1 | 33.7 µM and 23.5 µM |
| COCc1ncc(-c2nccn2CCS(C)(=O)=O)cn1 | > 100 µM |
| O=C(c1nc2c(s1)CCCN2CC1CC1)N1CCOCC1 | 19 µM and 13.2 µM |
| c1cc2nccc(CC3CCCN(Cc4ncc[nH]4)CC3)c2cn1 (stereo unspecified) | > 100 µM |
| Cc1ccc(CN2C(=O)CCC2C(=O)Nc2cnn(C)c2)o1 (stereo unspecified) | > 100 µM and 90.1 µM |
| Cc1nnc(SCC(=O)c2cc3c(cc2Cl)NC(=O)C3)o1 | 42.4 µM and 52.8 µM |
| O=C(Nc1cccn(Cc2ccccc2)c1=O)c1ccncc1F | 35.7 µM and 31.2 µM |
| Cc1nnc(NCCc2coc(-c3ccc(F)cc3)n2)c(C#N)c1C | > 100 µM and 55.9 µM |
| CN1CCN(c2cccc(NC(=O)NCc3csc(N(C)C)n3)c2)C1=O | 38.9 µM and 48.5 µM |
| CCCn1nc2c(cc1=O)CN(CC1CCCCO1)CC2 (stereo unspecified) | 33.8 µM and 42.3 µM |
| Cc1cc2nc(SCC(=O)N3CCCC3)n(-c3ccccc3)c(=O)c2[nH]1 | 80.7 µM and > 100 µM |
| CN(CCOc1ccccc1)C(=O)Nc1cccn(C)c1=O | 15 µM and 15.4 µM |
| Nc1nnc(SCC(=O)c2cc3c(cc2Cl)NC(=O)C3)s1 | > 100 µM and 77.9 µM |
| Cc1ccc(C(=O)N2CCN(C(=O)NC(C)Cn3ccnc3)CC2)o1 (stereo unspecified) | > 100 µM |
| Cc1c(Cl)cccc1NC(=O)Cn1cc(C(=O)O)ccc1=O | > 100 µM |

| SMILES | IC50 |
| --- | --- |
| CCN1C(=O)C(C#N)=C(C)/C(=C/C2=Cc3ccccc3OC2)C1=O | 1.68 µM and 1.77 µM and 1.36 µM and 1.79 µM |
| Cn1ccnc1-c1cn(CCc2nnc(N)s2)nn1 | > 100 µM |
| COc1ccc(C2SC(C)=Nc3c2c(=O)[nH]n3C2CCCC2)cc1O (stereo unspecified) | > 100 µM |
| c1cncc(NCCNC2CCSC2)c1 (stereo unspecified) | 31.9 µM and 23 µM |
| O=c1c2cnc(N3CCOCC3)nc2ccn1-c1ccccc1 | > 100 µM |
| Cn1cccc(NC(=O)NCc2cccc(CO)c2)c1=O | > 100 µM |
| CCN1CC2(CCOCC2)c2cc(NS(=O)(=O)CC)ccc21 | 8.64 µM and 21.4 µM |
| COc1ccc(CCN)cc1-c1ccc(C(N)=O)cc1 | 48.8 µM and 28 µM |
| CCCn1nc2c(cc1=O)CN(Cc1cc(C)on1)CC2 | 80.7 µM and 80.3 µM |
| O=C(CCN1CCCC1)N1CC[C@@H](c2ccc3ccccc3c2)[C@H](O)C1 | 63.5 µM and 54.7 µM |
| c1cncc(-c2ccc3c(c2)C2(CC3)CCN(c3nncs3)CC2)c1 | 32.5 µM and 45.4 µM |
| Cc1ccsc1C(=O)Nc1cc(Br)c(=O)n(C)c1 | 30.3 µM and 25.3 µM |
| CCC1=NOC(CNCc2cnc(-c3ccccc3C)s2)C1 (stereo unspecified) | > 100 µM |
| CC1=Nc2c(c(=O)[nH]n2C(C)C)C(c2ccc3c(c2)OCCO3)S1 (stereo unspecified) | > 100 µM |
| CC1=C(C#N)C(=O)NC(=O)/C1=C\c1c(C)nn(-c2ccc(C)cc2)c1O | 58.7 µM and 48 µM |
| Cc1nnc2n1CCN(C(=O)c1ccc(Cn3cccc3)cc1)C2 | 51.2 µM and 44 µM |
| O=C(c1cc(=O)n(-c2ccccc2)[nH]1)N1CCCC(c2ccn[nH]2)C1 (stereo unspecified) | 49.3 µM and 44.5 µM |
| COc1ccc(NC(=O)C2CCCO2)cc1OCc1cccnc1 (stereo unspecified) | > 100 µM and 72.6 µM |
| Cc1ccc(C)c(OC(C)C(=O)NCCNc2cccnc2)c1 (stereo unspecified) | 23.4 µM and 28.9 µM |
| COc1ccc(Oc2nccc3occc23)cc1CN1CCCC1 | 66.1 µM and 62.2 µM |
| COc1cccc(CN2CCN(CC(C)C)C(=O)C2C)c1O (stereo unspecified) | 6.15 µM and 5.67 µM |
| COc1ccc2c(c1)c(C(=O)Nc1nnn[nH]1)cn2C(C)C | > 100 µM |
| COc1cccn(Cc2nnc(-c3cccc(F)c3)o2)c1=O | 15.9 µM and 12.8 µM |
| COc1cc(CC(=O)Nc2cccc(C(=O)N(C)C)n2)ccc1C | 24.8 µM and 36.9 µM |

| SMILES | IC50 |
| --- | --- |
| Cc1cc(C(=O)NCC(F)(F)F)c2c(C3CCCN3)noc2n1 (stereo unspecified) | 38.4 µM and 70 µM |
| COCCN1CCCc2sc(C(=O)NCC3CCCO3)nc21 (stereo unspecified) | 22.4 µM and 24.1 µM |
| COc1ccccc1C1(CNCc2ccc(C#N)cc2)CCOCC1 | 50.4 µM and 50.9 µM |
| Cc1cccc2c1nc(COCC(=O)O)n2-c1cnc(N)cn1 | > 100 µM |
| Cn1nc2c(cc1=O)CN(CC(=O)Nc1nccs1)CC2 | > 100 µM |
| CC(=O)N1CCN(C(=O)CNc2ccc3ncsc3c2)CC1 | 6.78 µM and 9.49 µM |
| Cc1c(C(=O)N2CCC(O)(CN(C)C)C2)c2cc(O)ccc2n1C (stereo unspecified) | > 100 µM |
| COc1cc(CCO)c(OC)c2c1OCO2 | > 100 µM |
| CCn1nc2c(cc1=O)CN(c1nc3ccccc3s1)CC2 | 62.6 µM and 73.7 µM |
| Cc1cc(O)ncc1NS(=O)(=O)c1cccc(F)c1F | 45.7 µM and 49.5 µM |
| O=C(C1=NN(Cc2ccccc2)c2ccccc2S1(=O)=O)N1CCCC1 | 40.6 µM and 39.5 µM |
| Cc1c(CN2CCOCC2)c(O)n(CCc2ccccc2)c(=O)c1C#N | 23.3 µM and 19.8 µM |
| CC(C)C(C)NC(=O)Nc1cccn(C)c1=O (stereo unspecified) | 65.4 µM and 53.4 µM |
| CN(C)CCN1CCO[C@@H]2CCN(C(=O)c3cccn3C)CC[C@H]21 | > 100 µM |
| NCCc1cccc(CN2CCN(c3ccccc3)C(=O)C2)c1 | 26.8 µM and 20.5 µM |
| Cn1nc2c(cc1=O)CN(c1nc3ccccc3s1)CC2 | 72.4 µM and 80.9 µM |
| CCOc1nnc(CNC2CCCN(c3ccc(C)nn3)C2)s1 (stereo unspecified) | > 100 µM and 94.7 µM |
| CCCn1nc2c(cc1=O)CN(CCCN1CCCC1=O)CC2 | 48.6 µM and 55.3 µM |
| Clc1cc(NCc2ccncc2)nc2[nH]ccc12 | 18.7 µM and 17.4 µM |
| Cn1cc(NC(=O)N2CCN(Cc3cscn3)CC2)ccc1=O | 8.51 µM and 8.59 µM |
